Test results reported in ChEMBL document CHEMBL6182865, “Discovery of potent free fatty acid receptor 1 full agonists with a novel scaffold bearing conjugated double bond linker” (Bioorg Med Chem, 2025).
Blank lines part the entries; values can stand above or below the molecule they belong to. Active and inactive are the calls of the source. The calls are words filed in the database; no cut-off is given here.

Assays:
[1] = biological target: T1, Free fatty acid receptor 1 (Homo sapiens, UniProt O14842); experiment: Agonist activity at GPR40 (unknown origin) expressed in HEK293 cells assessed as intracellular cAMP level incubated for 30 mins by LANCE Ultra cAMP kit based multiplate reader analysis; type: functional, cell-based
T1 sequence (O14842 whole entry): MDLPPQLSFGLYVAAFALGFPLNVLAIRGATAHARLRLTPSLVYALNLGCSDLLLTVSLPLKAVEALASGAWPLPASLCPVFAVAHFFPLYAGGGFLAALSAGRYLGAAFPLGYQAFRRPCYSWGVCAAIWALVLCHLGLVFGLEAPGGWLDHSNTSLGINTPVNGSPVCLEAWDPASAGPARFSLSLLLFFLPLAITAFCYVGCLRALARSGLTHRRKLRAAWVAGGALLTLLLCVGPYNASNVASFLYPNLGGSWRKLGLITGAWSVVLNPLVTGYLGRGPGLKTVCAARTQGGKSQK

[2] = biological target: T1, Free fatty acid receptor 1; experiment: Agonist activity at GPR40 (unknown origin) expressed in HEK293 cells assessed as intracellular inositol phosphate accumulation incubated for 30 mins by IP-one HTRF analysis; type: functional, cell-based
[3] = test system: Mus musculus; experiment: Hypoglycemic effect in male po dosed C57BL/6 mouse preadministered with compound for 60 mins followed by glucose administration at 0 hrs and measured up to 90 mins by oral glucose tolerance test; type: functional, organism-based; settings: dose 3-30 mg/kg, time <= 150.0 min
[4] = test system: Mus musculus; experiment: Hypoglycemic effect in male C57BL/6 mouse assessed as reduction in blood glucose level at 10 mg/kg, po preadministered with compound for 60 mins followed by glucose administration at 0 hrs and measured up to 90 mins by oral glucose tolerance test; type: functional, organism-based; settings: time <= […] min
[5] = test system: Mus musculus; experiment: Hypoglycemic effect in male C57BL/6 mouse assessed as reduction in blood glucose level at 30 mg/kg, po preadministered with compound for 60 mins followed by glucose administration at 0 hrs and measured up to 90 mins by oral glucose tolerance test; type: functional, organism-based; settings: time <= 150.0 min
[6] = biological target: T1, Free fatty acid receptor 1; experiment: Partial agonist activity at GPR40 (unknown origin) expressed in HEK293 cells assessed as intracellular inositol phosphate accumulation by measuring maximum efficacy incubated for 30 mins by IP-one HTRF analysis relative to control; type: functional, cell-based; settings: filed as partial agonist
[7] = test system: Mus musculus; experiment: Hypoglycemic effect in male C57BL/6 mouse assessed as reduction in blood glucose level at 3 mg/kg, po preadministered with compound for 60 mins followed by glucose administration at 0 hrs and measured up to 90 mins by oral glucose tolerance test; type: functional, organism-based; settings: time <= 150.0 min

Structure (SMILES): CCCOc1ccc(OC)cc1/C=C(C)/C=C/COc1cccc(C(CC(=O)O)C2CC2)c1 (stereo not drawn)
EC50 [1]: > 10 µM | EC50 [2]: 0.364 µM

Structure (SMILES): COc1cc(/C=C(C)/C=C/COc2cccc(C(CC(=O)O)C3CC3)c2)cc(OCc2ccc(Cl)cc2F)c1 (stereo not drawn)
EC50 [1]: > 10 µM | EC50 [2]: 1.36 µM

Structure (SMILES): COc1ccc(OCCC(C)(C)C)c(/C=C(C)/C=C/COc2cccc([C@H](C3CC3)[C@@](C)(F)C(=O)O)c2)c1
EC50 [1]: 0.261 µM | EC50 [2]: 0.00323 µM | Activity [3]: Dose-dependent-effect | Activity [4]: Active | Activity [5]: Active; Compound Showed Better Effect Compared With Standard Drug(Sco-267)

Structure (SMILES): COc1ccc(F)c(CCCCOc2cccc(C(CC(=O)O)C3CC3)c2)c1 (stereo not drawn)
EC50 [1]: > 10 µM | EC50 [2]: 6.7 µM

Structure (SMILES): Cc1cc(OCCCS(C)(=O)=O)cc(C)c1-c1cccc(COc2ccc3c(c2)OC[C@H]3CC(=O)O)c1
Emax [6]: 77.8%

Structure (SMILES): COc1ccc(F)c(/C=C/C=C/COc2cccc(C(CC(=O)O)C3CC3)c2)c1 (stereo not drawn)
EC50 [1]: > 10 µM | EC50 [2]: 1.77 µM

Structure (SMILES): COc1ccc(OCC2CC2)c(/C=C(C)/C=C/COc2cccc(C(CC(=O)O)C3CC3)c2)c1 (stereo not drawn)
EC50 [1]: > 10 µM | EC50 [2]: 0.367 µM

More lines, main results first:

EC50 [1]: > 10 µM | EC50 [2]: 0.204 µM
Structure (SMILES): COc1ccc(OCc2ccccc2)c(/C=C(C)/C=C/COc2cccc(C(CC(=O)O)C3CC3)c2)c1 (stereo not drawn)

EC50 [1]: > 10 µM | EC50 [2]: 1.05 µM
Structure (SMILES): COc1ccc(OCCC(C)(C)C)c(/C=C(C)/C=C/COc2cccc([C@H](C3CC3)[C@](C)(F)C(=O)O)c2)c1

EC50 [1]: 6.87 µM | EC50 [2]: 0.134 µM
Structure (SMILES): COc1ccc(OCCCC(C)C)c(/C=C(C)/C=C/COc2cccc(C(CC(=O)O)C3CC3)c2)c1 (stereo not drawn)

EC50 [1]: 0.0879 µM | EC50 [2]: 0.00111 µM
Structure (SMILES): COc1ccc(C(=O)N(CC(C)(C)C)c2cccc(C)n2)c(N2CCC(COc3cc([C@@H](CC(=O)O)C4CC4)ccn3)CC2)c1
Activity [7]: Active

EC50 [1]: > 10 µM | EC50 [2]: > 10 µM
Structure (SMILES): COc1ccc(F)c(CCCCCCOc2cccc(C(CC(=O)O)C3CC3)c2)c1 (stereo not drawn)

EC50 [1]: > 10 µM | EC50 [2]: 0.894 µM
Structure (SMILES): COc1ccc(OC)c(/C=C(C)/C=C/COc2cccc(C(CC(=O)O)C3CC3)c2)c1 (stereo not drawn)

EC50 [1]: > 10 µM | EC50 [2]: 0.943 µM
Structure (SMILES): COc1cc(/C=C(C)/C=C/COc2cccc(C(CC(=O)O)C3CC3)c2)cc(OCCC(C)(C)C)c1 (stereo not drawn)

EC50 [1]: > 10 µM | EC50 [2]: > 10 µM
Structure (SMILES): COc1ccc(F)c(CCCOc2cccc(C(CC(=O)O)C3CC3)c2)c1 (stereo not drawn)
